{"source": "patent US20190008154A1", "about": "(priority 2015, published 2019)", "system": "P[…] (PYRIOR)", "design": "species or system Pyricularia oryzae", "details": "in vivo", "note": "“And” between values parts separate entries of the source, which are not always exact repeats. Equal entries are not always repeated."}
{"smiles": "Cc1cccc2sc3nncn3c12", "note": "[TCA, 5-methyl-1,2,4-triazolo[3,4-b][1,3]benzothiazole]", "values": [{"measurement": "PYRIOR (% DC) Observed", "result": "100% and 95% and 50.2%"}]}
